Experimental data as given in patent US7700604B2, “Hydantoin derivatives as metalloproteinase inhibitors” (AstraZeneca AB, priority 2004, dated 2010).
pIC50: −log10 of the molar value.

Assays:
Type in all cases: biochemical
[1] = target: T1, Recombinant human MMP14 catalytic domain (Homo sapiens, UniProt P50281); assay: Isolated enzyme assay MMP14 (fluorogenic substrate); conditions: substrate Mca-Pro-Cha-Gly-Nva-His-Ala-Dpa-NH2 10 μM, 60 minutes at room temperature, pH 7.5, read-out: hMMP14 IC50
T1 construct: Recombinant human MMP14 catalytic domain; made in house
Experimental: Recombinant human MMP14 catalytic domain may be expressed and purified as described by Parkar A. A. et al, (2000), Protein Expression and Purification, 20, 152. The purified enzyme can be used to monitor inhibitors of activity as follows: MMP14 (10 ng/ml final concentration) is incubated for 60 minutes at room temperature with the synthetic substrate Mca-Pro-Cha-Gly-Nva-His-Ala-Dpa-NH2 (10 μM) in assay buffer (0.1M “Tris-HCl” (trade mark) buffer, pH 7.5 containing 0.1M NaCl, 20 mM CaCl2, 0.020 mM ZnCl and 0.05% (w/v) “Brij 35” (trade mark) detergent) in the presence (5 concentrations) or absence of inhibitors. Activity is determined by measuring the fluorescence at λex 320 nm and λem 405 nm. Percent inhibition is calculated as follows: % Inhibition is equal to the [Fluorescenceplus inhibitor−Fluorescencebackground] divided by the [Fluorescenceminus inhibitor−Fluorescencebackground].

[2] = target: T2, Recombinant human MMP12 catalytic domain (Homo sapiens, UniProt P39900); assay: Isolated enzyme assay MMP12 (fluorogenic substrate); conditions: substrate Mca-Pro-Cha-Gly-Nva-His-Ala-Dpa-NH2 10 μM, 60 minutes at room temperature, pH 7.3, read-out: hMMP12 IC50
T2 construct: Recombinant human MMP12 catalytic domain; made in house
Experimental: Recombinant human MMP12 catalytic domain may be expressed and purified as described by Parkar A. A. et al, (2000), Protein Expression and Purification, 20, 152. The purified enzyme can be used to monitor inhibitors of activity as follows: MMP12 (50 ng/ml final concentration) is incubated for 60 minutes at room temperature with the synthetic substrate Mca-Pro-Cha-Gly-Nva-His-Ala-Dpa-NH2 (10 μM) in assay buffer (0.1M “Tris-HCl” (trade mark) buffer, pH 7.3 containing 0.1M NaCl, 20 mM CaCl2, 0.020 mM ZnCl and 0.05% (w/v) “Brij 35” (trade mark) detergent) in the presence (10 concentrations) or absence of inhibitors. Activity is determined by measuring the fluorescence at λex 320 nm and λem 405 nm. Percent inhibition is calculated as follows: % Inhibition is equal to the [Fluorescenceplus inhibitor−Fluorescencebackground] divided by the [Fluorescenceminus inhibitor−Fluorescencebackground]. MMP8

[3] = target: T3, Recombinant human MMP9 catalytic domain (Homo sapiens, UniProt P14780); assay: Isolated enzyme assay MMP9 (fluorogenic substrate); conditions: substrate Mca-Pro-Cha-Gly-Nva-His-Ala-Dpa-NH2 5 μM, 30 minutes at RT, pH 7.3, read-out: hMMP9 IC50
T3 sequence (P14780 with tags, fused parts or gaps DEL216-390): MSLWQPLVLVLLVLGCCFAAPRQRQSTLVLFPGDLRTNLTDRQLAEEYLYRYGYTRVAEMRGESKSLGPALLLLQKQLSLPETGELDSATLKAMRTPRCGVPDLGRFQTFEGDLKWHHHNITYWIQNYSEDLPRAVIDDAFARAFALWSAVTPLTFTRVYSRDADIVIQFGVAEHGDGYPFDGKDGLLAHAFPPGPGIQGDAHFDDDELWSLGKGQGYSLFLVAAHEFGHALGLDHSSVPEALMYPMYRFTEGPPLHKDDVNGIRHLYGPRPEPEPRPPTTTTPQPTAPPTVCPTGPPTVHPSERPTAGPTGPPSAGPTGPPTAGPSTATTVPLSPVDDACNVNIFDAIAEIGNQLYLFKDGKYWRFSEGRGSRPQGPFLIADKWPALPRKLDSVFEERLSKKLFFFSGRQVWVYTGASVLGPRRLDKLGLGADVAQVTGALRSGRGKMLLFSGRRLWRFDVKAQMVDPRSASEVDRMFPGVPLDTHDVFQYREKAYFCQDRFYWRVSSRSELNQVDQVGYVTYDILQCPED
Experimental: Recombinant human MMP9 catalytic domain was expressed and then purified by Zn chelate column chromatography followed by hydroxamate affinity column chromatography. The enzyme can be used to monitor inhibitors of activity as follows: MMP9 (5 ng/ml final concentration) is incubated for 30 minutes at RT with the synthetic substrate Mca-Pro-Cha-Gly-Nva-His-Ala-Dpa-NH2 (5 μM) in assay buffer (0.1M “Tris-HCl” (trade mark) buffer, pH 7.3 containing 0.1M NaCl, 20 mM CaCl2, 0.020 mM ZnCl and 0.05% (w/v) “Brij 35” (trade mark) detergent) in the presence (10 concentrations) or absence of inhibitors. Activity is determined by measuring the fluorescence at λex 320 nm and λem 405 nm. Percent inhibition is calculated as follows: % Inhibition is equal to the [Fluorescenceplus inhibitor−Fluorescencebackgound] divided by the [Fluorescenceminus inhibitor−Fluorescencebackground]. […]

T2 sequence (P39900 106-263 limits assumed): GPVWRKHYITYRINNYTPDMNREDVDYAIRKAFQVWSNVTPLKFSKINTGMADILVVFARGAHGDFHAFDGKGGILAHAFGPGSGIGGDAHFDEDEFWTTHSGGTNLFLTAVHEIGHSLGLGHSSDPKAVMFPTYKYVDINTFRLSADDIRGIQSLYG

Compound	pIC50 [1]	pIC50 [2]	pIC50 [3]
C[C@]1(CS(=O)(=O)N2CCc3cc(-c4cnc(C(F)(F)F)nc4)ccc3C2)NC(=O)NC1=O [Example 1, (5)-5-Methyl-5-({[6-[2-(trifluoromethyl)pyrimidin-5-yl]-3,4-dihydroisoquinolin-2(1H)-yl]sulfonyl}methyl)imidazolidine-2,4-dione]	< 5.00	7.98	7.53
C[C@]1(CS(=O)(=O)N2CCc3cc(-c4ccc(Cl)cc4)ccc3C2)NC(=O)NC1=O [Example 2, (5S)-5-({[6-(4-Chlorophenyl)-3,4-dihydroisoquinolin-2(1H)-yl]sulfonyl}methyl)-5-methylimidazolidine-2,4-dione]	6.38	8.85	8.46
C[C@]1(CS(=O)(=O)N2CCc3cc(-c4ccc(Cl)cc4)ncc3C2)NC(=O)NC1=O [Example 5, (5S)-5-({[6-(4-Chlorophenyl)-3,4-dihydro-2,7-naphthyridin-2(1H)-yl]sulfonyl}methyl)-5-methylimidazolidine-2,4-dione]	5.70	8.15	8.08
